In US6423745B1, “Pyrethroid compound and composition for controlling pest containing the same as an active ingredient” (Sumitomo Chemical Co., Ltd., priority 1998, dated 2002):

Tests used:
[1] = system: common mosquito (Culex pipiens pallens); assay: Effect of a mosquito coil on common mosquito (knock-down); format: in vivo; set-up: key: Excellent: All the insects were knocked down (the total in the two replications).; Good: 1 to 3 insects were not knocked down (ditto).; Mediocre: 4 to 6 insects were not knocked down (ditto).; Bad: 7 or more insects were not knocked down (ditto); conditions: 0.3 g coil burnt 30 seconds in 0.34 m^3 glass chamber, female adults counted after fifteen minutes
Excerpt: Effect of a mosquito coil on common mosquito (Culex pipiens pallens)
A base material for mosquito coil (obtained by stirring a 4:3:3 mixture of Tabu powder, Pyrethrum marc and wood powder, adding water thereto, thoroughly kneading the resulting mixture, and molding and drying the kneaded mixture) was uniformly impregnated with a solution of the present compound in acetone so that the material contains a predetermined amount of the compound. The resultant base material was air-dried to obtain a mosquito coil.
Ten female adult common mosquitoes were released in a glass chamber (70 cm cube, capacity: 0.34 m^3). 0.3 Gram of a mosquito coil containing the present compound prepared according to the procedure described above was set on a holder in the center of bottom of the chamber, ignited at one end thereof, and taken out of the chamber after 30 seconds of combustion. The knocked-down common mosquitoes were counted in fifteen minutes after the setting of the coil.
(§1) The same test procedure was repeated for (S)-2-methyl-4-oxo-3-(2-propynyl)-cyclopent-2-enyl (1RS)-cis-3-(2,2-dichlorovinyl)-2,2-dimethylcyclopropanecarboxylate (hereinafter referred to as reference compound A).
In Table 1, the knocking-down activity is indicated according to the following criterion: […]

[2] = system: common mosquito (Culex pipiens pallens); assay: Effect of spraying of an oil formulation on common mosquito (knock-down); format: in vivo; conditions: 0.7 ml sprayed in 0.34 m^3 glass chamber, female adults counted after two minutes
Excerpt: Effect of spraying of an oil formulation on common mosquito (Culex pipiens pallens)
Ten female adult common mosquitoes were released in a glass chamber (70 cm cube, capacity: 0.34 m^3). 0.7 Milliliter of an oil formulation containing a predetermined concentration (shown in Table 2) of the present compound prepared according to Formulation Example 7 was sprayed into the chamber through a small side window of the chamber with a spray gun. The knocked-down common mosquitoes were counted in two minutes after the spraying.
as §1
In Table 2, the knocking-down activity is indicated according to the following criterion: […]

[3] = system: American cockroach (Periplaneta americana); assay: Insecticidal activity against American cockroach (topical application); format: in vivo; conditions: 72 h, read-out: Insecticidal activity against American cockroach (LD50)
Method: Insecticidal Activity Against American Cockroach (Periplaneta americana) and Toxicity to Rat Insecticidal Activity Against American Cockroach
Each of the present compound and reference compound A were diluted with acetone to prepare dilutions of prescribed concentrations. Each dilution was applied on the sterna of female adult American cockroaches with a micro-applicator in a volume of 1.0 μl per insect. Then, the insects were given water and diet. After 72 hours, the dead and alive were counted. From the mortality, LD50 (mg/kg) value was determined.

Toxicity to rat = conditions: in vivo, male rats, dilution in corn oil, 10 ml/kg, mortality after 7 days
Method: Each of the present compound and reference compound A was diluted with corn oil to predetermined concentrations. Each of the dilutions thus prepared was administered to male rats in an amount of 10 ml/kg. The rats were given water and diet. After 7 days, the dead and alive were counted for mortality. From the mortality, LD50 (mg/kg) value was determined.

[4] = Calculation of safety factor (rat LD50 / American cockroach LD50); conditions: [Toxicity to rat (LD50 value)]/[Insecticidal activity against American cockroach (LD50 value)]
Method: Calculation of Safety Factor
The safety factor was calculated from the insecticidal activity against American cockroach and the toxicity to rat according to the following equation.
Safety factor=[Toxicity to rat (LD50 value)]/[Insecticidal activity against American cockroach (LD50 value)]

SMILES | Knocking-down activity ([1]; concentration 0.5 % W/W) | Knocking-down activity ([2]; concentration 0.025 % W/W) | LD50 [3] | LD50 at 7 days (Toxicity to rat) | Safety factor [4] | Knocking-down activity ([1]; concentration 1.0 % W/W) | Knocking-down activity ([2]; concentration 0.05 % W/W)
C#CCC1=C(C)[C@@H](OC(=O)[C@@H]2[C@@H](C=C(Cl)Cl)C2(C)C)CC1=O [Present compound, (S)-2-methyl-4-oxo-3-(2-propynyl)-cyclopent-2-enyl (1R)-trans-3-(2,2-dichlorovinyl)-2,2-dimethylcyclopropanecarboxylate] | Excellent | Good (3 or less insects were not knocked down (the total in the two replications).) | 0.72 mg/kg | > 300 mg/kg | >420 |  | 
C#CCC1=C(C)[C@@H](OC(=O)[C@@H]2[C@H](C=C(Cl)Cl)C2(C)C)CC1=O (racemic) [A, (S)-2-methyl-4-oxo-3-(2-propynyl)-cyclopent-2-enyl (1RS)-cis-3-(2,2-dichlorovinyl)-2,2-dimethylcyclopropanecarboxylate] | Bad (7 or more insects were not knocked down (ditto).) | Bad (7 or more insects were not knocked down (ditto).) | 4.4 mg/kg | < 100 mg/kg | <23 | Bad (7 or more insects were not knocked down (ditto).) | Bad (7 or more insects were not knocked down (ditto).)
